In PubChem BioAssay (NCI):
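Tested at 5 concentrations; 48 h exposure; 96-well plates; endpoints linearly interpolated, else capped at highest concentration. Here, GI50 denotes the concentration required for 50% inhibition of growth. Definition used: TGI = concentration required for complete inhibition of growth.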

Experiments:
Assay in all cases: NCI tumour cell line growth inhibition, 48 h
DMS 114 small cell lung = test system: DMS 114 small cell lung
HCT-116 colon = test system: HCT-116 colon
HOP-92 NSCLC = test system: HOP-92 NSCLC
K-562 leukemia = test system: K-562 leukemia
LXFL 529 NSCLC = test system: LXFL 529 NSCLC
OVCAR-3 ovarian = test system: OVCAR-3 ovarian
OVCAR-4 ovarian = test system: OVCAR-4 ovarian
RXF 393 renal = test system: RXF 393 renal
MDA-MB-435 = test system: MDA-MB-435
T-47D breast = test system: T-47D breast

## COC(=O)CC(NC(=O)OCc1ccccc1)C(C(C)=O)C(=O)OCc1ccccc1 (centres undefined)
DMS 114 small cell lung
  TGI: > 31.6 µM
HCT-116 colon
  TGI: > 31.6 µM
HOP-92 NSCLC
  TGI: > 31.6 µM
K-562 leukemia
  TGI: > 31.6 µM
LXFL 529 NSCLC
  TGI: > 31.6 µM
OVCAR-3 ovarian
  TGI: > 31.6 µM

## COC(=O)CCC(NC(=S)N/N=C(\C)c1cnc2ccccc2n1)C(=O)OC (centres undefined)
HCT-116 colon
  TGI: 38.6 µM
K-562 leukemia
  TGI: > 100 µM
LXFL 529 NSCLC
  TGI: > 100 µM
OVCAR-3 ovarian
  TGI: > 100 µM
OVCAR-4 ovarian
  TGI: > 100 µM
RXF 393 renal
  TGI: 86 µM

## N#CCCN(c1ccc(C=Nc2ccccc2)cc1)S(=O)(=O)c1ccccc1
DMS 114 small cell lung
  TGI: > 100 µM
HCT-116 colon
  TGI: > 100 µM
HOP-92 NSCLC
  TGI: > 100 µM
K-562 leukemia
  TGI: > 100 µM
LXFL 529 NSCLC
  TGI: > 100 µM
OVCAR-3 ovarian
  TGI: > 100 µM
OVCAR-4 ovarian
  TGI: > 100 µM

## Cn1cc(C(=O)c2ccccc2)c2ccccc2c1=O
DMS 114 small cell lung
  TGI: > 100 µM
HCT-116 colon
  TGI: > 100 µM
HOP-92 NSCLC
  TGI: > 100 µM
LXFL 529 NSCLC
  TGI: > 100 µM
OVCAR-3 ovarian
  TGI: > 100 µM
OVCAR-4 ovarian
  TGI: > 100 µM
RXF 393 renal
  TGI: > 100 µM

## Nc1ncnc2c1ncn2[C@]1(CO)C=C(CO)C(O)C1O (some centres undefined)
DMS 114 small cell lung
  TGI: > 100 µM
HCT-116 colon
  TGI: > 100 µM
HOP-92 NSCLC
  TGI: > 100 µM
LXFL 529 NSCLC
  TGI: > 100 µM
OVCAR-4 ovarian
  TGI: > 100 µM
RXF 393 renal
  TGI: > 100 µM

## C/C(=N\NC(=S)N1CCCCC1)c1ccccn1
HCT-116 colon
  GI50: < 0.01 µM
  TGI: 1.52 µM
HOP-92 NSCLC
  GI50: 0.0963 µM
  TGI: 4.54 µM
K-562 leukemia
  GI50: < 0.01 µM
  TGI: 8.76 µM
MDA-MB-435
  GI50: 0.208 µM
  TGI: 5.89 µM
OVCAR-3 ovarian
  GI50: < 0.01 µM
  TGI: 1.69 µM
OVCAR-4 ovarian
  GI50: < 0.01 µM
  TGI: 4.57 µM
RXF 393 renal
  GI50: 0.295 µM
  TGI: 1.79 µM
T-47D breast
  GI50: < 0.01 µM
  TGI: 5.15 µM

## CC(=O)OCC1OC(n2cc(F)c(=O)[nH]c2=O)C(NC(=O)N(CCCl)N=O)C(OC(C)=O)C1OC(C)=O (centres undefined)
DMS 114 small cell lung
  TGI: > 100 µM
HCT-116 colon
  TGI: > 100 µM
HOP-92 NSCLC
  TGI: > 100 µM
K-562 leukemia
  TGI: > 100 µM
LXFL 529 NSCLC
  TGI: > 100 µM
OVCAR-3 ovarian
  TGI: > 100 µM
OVCAR-4 ovarian
  TGI: > 100 µM

## Cn1c2c(c3ccccc31)CCN(CCCCN1CCCCC1)C2=O
HCT-116 colon
  TGI: > 100 µM
HOP-92 NSCLC
  TGI: > 100 µM
K-562 leukemia
  TGI: > 100 µM
LXFL 529 NSCLC
  TGI: > 100 µM
OVCAR-3 ovarian
  TGI: > 100 µM
OVCAR-4 ovarian
  TGI: > 100 µM
RXF 393 renal
  TGI: > 100 µM

## c1cc(NNc2cccc(-c3nn[nH]n3)c2)cc(-c2nn[nH]n2)c1
HCT-116 colon
  TGI: > 100 µM
HOP-92 NSCLC
  TGI: > 100 µM
K-562 leukemia
  TGI: > 100 µM
MDA-MB-435
  TGI: > 100 µM
OVCAR-3 ovarian
  TGI: > 100 µM
OVCAR-4 ovarian
  TGI: > 100 µM
RXF 393 renal
  TGI: > 100 µM
T-47D breast
  TGI: > 100 µM

## Cc1cc2nc3c4cc(O)ccc4n(CCN(C)C)c3nc2cc1C
HCT-116 colon
  GI50: 0.397 µM
  TGI: 3.36 µM
HOP-92 NSCLC
  GI50: 0.287 µM
  TGI: 2.62 µM
K-562 leukemia
  GI50: 0.368 µM
  TGI: > 100 µM
MDA-MB-435
  GI50: 1.07 µM
  TGI: 2.36 µM
OVCAR-3 ovarian
  GI50: 1.77 µM
  TGI: 8.19 µM
OVCAR-4 ovarian
  GI50: 1.34 µM
  TGI: 3.63 µM
RXF 393 renal
  GI50: 0.828 µM
  TGI: 2.47 µM
T-47D breast
  GI50: 1.28 µM
  TGI: > 100 µM

## CCN1C/C(=C\c2cc(OC)c(OC)cc2OC)C(=O)/C(=C/c2cc(OC)c(OC)cc2OC)C1
HCT-116 colon
  GI50: 1.84 µM
  TGI: 3.84 µM
HOP-92 NSCLC
  GI50: 2.46 µM
  TGI: 17.8 µM
K-562 leukemia
  GI50: 3.58 µM
  TGI: > 100 µM
MDA-MB-435
  GI50: 2.07 µM
  TGI: 4.3 µM
OVCAR-3 ovarian
  GI50: 2.29 µM
  TGI: 5.17 µM
OVCAR-4 ovarian
  GI50: 3.73 µM
  TGI: > 100 µM
RXF 393 renal
  GI50: 2.32 µM
  TGI: 7.38 µM
T-47D breast
  GI50: 2.96 µM
  TGI: > 100 µM

## COc1ccc2c(c1)/C(=C\c1c(-c3cc(OC)ccc3OC)nc3sc(C)cn13)C(=O)N2C
HCT-116 colon
  GI50: 22.3 µM
  TGI: > 100 µM
HOP-92 NSCLC
  GI50: 4.33 µM
  TGI: 37.6 µM
K-562 leukemia
  GI50: 28 µM
  TGI: > 100 µM
MDA-MB-435
  GI50: 26.5 µM
  TGI: 79.9 µM
OVCAR-3 ovarian
  GI50: 15.6 µM
  TGI: 54.5 µM
OVCAR-4 ovarian
  GI50: 20.9 µM
  TGI: > 100 µM
RXF 393 renal
  GI50: > 100 µM
  TGI: > 100 µM
T-47D breast
  GI50: 29.7 µM
  TGI: > 100 µM

## CCN(CCCN(C)C)Cc1cc(I)cc(C)c1O
HCT-116 colon
  GI50: 14.6 µM
  TGI: 32 µM
HOP-92 NSCLC
  GI50: 10.8 µM
  TGI: 52.3 µM
K-562 leukemia
  GI50: 6.95 µM
  TGI: 23.3 µM
MDA-MB-435
  GI50: 15.7 µM
  TGI: 31.6 µM
OVCAR-3 ovarian
  GI50: 26.7 µM
  TGI: > 100 µM
OVCAR-4 ovarian
  GI50: 48.7 µM
  TGI: > 100 µM
RXF 393 renal
  GI50: 17.1 µM
  TGI: 51.1 µM
T-47D breast
  GI50: 21.3 µM
  TGI: 48.5 µM

## CC(C)c1[nH]nc(C(N)=O)c1N=NN(C)C
HCT-116 colon
  TGI: > 100 µM
HOP-92 NSCLC
  TGI: > 100 µM
K-562 leukemia
  TGI: > 100 µM
MDA-MB-435
  TGI: > 100 µM
OVCAR-3 ovarian
  TGI: > 100 µM
OVCAR-4 ovarian
  TGI: > 100 µM
RXF 393 renal
  TGI: > 100 µM
T-47D breast
  TGI: > 100 µM

## O=c1[nH]c2ccccc2c2ccccc12
HCT-116 colon
  GI50: > 100 µM
  TGI: > 100 µM
HOP-92 NSCLC
  GI50: 39.8 µM
  TGI: > 100 µM
K-562 leukemia
  GI50: > 100 µM
  TGI: > 100 µM
MDA-MB-435
  GI50: > 100 µM
  TGI: > 100 µM
OVCAR-3 ovarian
  GI50: > 100 µM
  TGI: > 100 µM
OVCAR-4 ovarian
  GI50: 60.7 µM
  TGI: > 100 µM
RXF 393 renal
  GI50: > 100 µM
  TGI: > 100 µM
T-47D breast
  GI50: > 100 µM
  TGI: > 100 µM

## COC[C@@H](N=C1NC(=O)/C(=C/c2ccc3ncccc3c2)S1)c1ccccc1
HCT-116 colon
  GI50: 8.73 µM
  TGI: > 25 µM
HOP-92 NSCLC
  GI50: 5.07 µM
  TGI: > 21.1 µM
K-562 leukemia
  GI50: 10.3 µM
  TGI: > 25 µM
MDA-MB-435
  GI50: 9.12 µM
  TGI: > 25 µM
OVCAR-3 ovarian
  GI50: 9.38 µM
  TGI: > 25 µM
OVCAR-4 ovarian
  GI50: 5.16 µM
  TGI: > 25 µM
RXF 393 renal
  GI50: 6.47 µM
  TGI: > 24.2 µM
T-47D breast
  GI50: 8.43 µM
  TGI: > 25 µM

## COc1ccc2c(c1OC)C[C@@H]1c3c(cc4c(c3-2)OCO4)CCN1C
HCT-116 colon
  TGI: 47.3 µM
HOP-92 NSCLC
  TGI: 68.1 µM
K-562 leukemia
  TGI: 56.6 µM
MDA-MB-435
  TGI: > 100 µM
OVCAR-3 ovarian
  TGI: > 100 µM
OVCAR-4 ovarian
  TGI: > 100 µM
RXF 393 renal
  TGI: 66.4 µM
T-47D breast
  TGI: 90.2 µM

## CC(N)C(Cc1ccc(Cl)cc1)c1ccc(Cl)cc1 (centres undefined)
HCT-116 colon
  GI50: 4.05 µM
  TGI: 16.4 µM
HOP-92 NSCLC
  GI50: 5.59 µM
  TGI: 19.9 µM
K-562 leukemia
  GI50: 3.05 µM
  TGI: 10.8 µM
MDA-MB-435
  GI50: 8.2 µM
  TGI: 20.7 µM
OVCAR-3 ovarian
  GI50: 13.8 µM
  TGI: 27.5 µM
OVCAR-4 ovarian
  GI50: 11.4 µM
  TGI: 25.7 µM
RXF 393 renal
  GI50: 11.7 µM
  TGI: 25.5 µM
T-47D breast
  GI50: 10.7 µM
  TGI: 26 µM

## CC(=O)Nc1ccc2c(c1)C(c1ccccc1Cl)=Nc1c(n[nH]c1C)N2
HCT-116 colon
  GI50: 2.49 µM
  TGI: > 25 µM
HOP-92 NSCLC
  GI50: 1.41 µM
  TGI: 16.4 µM
K-562 leukemia
  GI50: 17.3 µM
  TGI: > 25 µM
MDA-MB-435
  GI50: > 20 µM
  TGI: > 25 µM
OVCAR-3 ovarian
  GI50: 9.06 µM
  TGI: > 25 µM
OVCAR-4 ovarian
  GI50: > 15.9 µM
  TGI: > 25 µM
RXF 393 renal
  GI50: 1.02 µM
  TGI: 9.59 µM
T-47D breast
  GI50: 8.38 µM
  TGI: > 23.6 µM
